Assay results: patent publication US5705336A, “Assay for sensitivity of tumors to DNA-platinating chemotherapy” (The United States of America as represented by the …, priority 1995, dated 1998)
pIC50: −log10 of the molar value.

Tests used:
HuT 78 [1] = assay: inhibition of growth of HuT 78 cells, 3 day continuous cisplatin exposure; type: cell-based, human; details: continuous exposure to cisplatin for 3 days, 50% reduction in cell number
Protocol: (§1) The expression of total ERCC1 mRNA, exon VIII^- mRNA and XPA mRNA was examined in three human T lymphocyte cell lines (HuT 78, H9 and MOLT-4), using essentially the methods described in Example 1. The cells were obtained from the American Type Culture Collection, Rockville, Md. Cells were cultured in RPMI-1640 medium supplemented with 10% heat-inactivated calf serum, 100 μg/ml penicillin, 100 μg/ml streptomycin and 2 mM glutamine.
(§2) All cell lines were assayed for sensitivity to cisplatin by measurement of the inhibition of growth following 3 day cisplatin exposures ranging from 0.5 to 100 μM. Cell lines were seeded at an initial cell density of 5×10^4 cells/ml, After continuous contact with drug for 3 days, cell counts obtained by Coulter counter were expressed as a percentage of counts obtained from aliquots of control cells, cultured in the absence of drug. Cells treated similarly but for the absence of drug served as controls. IC50 values were assessed as those drug levels effecting a 50% reduction in cell number as compared to Untreated cells.

H9 [2] = assay: inhibition of growth of H9 cells, 3 day continuous cisplatin exposure; type: cell-based, human; details: continuous exposure to cisplatin for 3 days, 50% reduction in cell number
Protocol: as §1, §2

MOLT-4 [3] = assay: inhibition of growth of MOLT-4 cells, 3 day continuous cisplatin exposure; type: cell-based, human; details: continuous exposure to cisplatin for 3 days, 50% reduction in cell number
Protocol: as §1, §2

[4] = system: three human T lymphocyte cell lines (HuT 78, H9 and MOLT-4); assay: cisplatin sensitivity compared across the three T cell lines; type: cell-based; details: across HuT 78, H9 and MOLT-4
Protocol: as §1, §2

HuT 78 [5] = details: platination level that reduces CAT activity to 37% of control, taken from ref. 26; cited from earlier work
H9 [6] = details: platination level that reduces CAT activity to 37% of control, taken from ref. 26; cited from earlier work
MOLT-4 [7] = details: platination level that reduces CAT activity to 37% of control, taken from ref. 26; cited from earlier work
HuT 78 [8] = details: removed in 6 hrs following a 1 hr, 10 μM exposure, taken from ref. 26; cited from earlier work
H9 [9] = details: removed in 6 hrs following a 1 hr, 10 μM exposure, taken from ref. 26; cited from earlier work
MOLT-4 [10] = details: removed in 6 hrs following a 1 hr, 10 μM exposure, taken from ref. 26; cited from earlier work

N.N.[Cl][Pt][Cl] [cisplatin]
pIC50 (HuT 78 [1]): 6.08
pIC50 (H9 [2]): 6.35
pIC50 (MOLT-4 [3]): 6.48
cisplatin sensitivity varied by [4]: about 3 fold
Reactivation of platinated plasmid Bo (HuT 78 [5]): 22 adducts/plasmid
Reactivation of platinated plasmid Bo (H9 [6]): 18 adducts/plasmid
Reactivation of platinated plasmid Bo (MOLT-4 [7]): 13 adducts/plasmid
Cellular DNA Repair (pg Pt/μg DNA removed in 6 hrs) (HuT 78 [8]): 5.6 pg Pt/μg DNA
Cellular DNA Repair (pg Pt/μg DNA removed in 6 hrs) (H9 [9]): 3.9 pg Pt/μg DNA
Cellular DNA Repair (pg Pt/μg DNA removed in 6 hrs) (MOLT-4 [10]): 2.3 pg Pt/μg DNA
